Consider twelve compounds from PubChem BioAssay AID328 (DTP/NCI, 2004).

Where “and” joins values, the source holds several entries; their conditions need not be identical. Identical values can stand only once. Inconclusive results and toxic doses are left out.

The subject of this test is BDF1 mice, P388 leukemia ip, median survival T/C. As to the kind of experiment: NCI In Vivo Anticancer Drug Screen. Data for tumor model P388 Leukemia (intraperitoneal) in B6D2F1 (BDF1) mice. To be noted: endpoint: median survival time, higher = longer survival. The method in brief:
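Vehicle-dosed animals serve as the reference; survival of compound-dosed, tumour-implanted mice is divided by it.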

The mark [1] stands for this setting: dose: 100.0 mg/kg/injection, schedule: Q04DX003 (ip), vehicle: saline with Tween-80.
[2] abbreviates: dose: 200.0 mg/kg/injection, schedule: Q04DX003 (ip), vehicle: saline with Tween-80.
Where [3] appears, read: dose: 400.0 mg/kg/injection, schedule: Q04DX003 (ip), vehicle: saline with Tween-80.
[4] abbreviates: dose: 33.0 mg/kg/injection, schedule: Q04DX003 (ip), vehicle: saline with Tween-80.
Where [5] appears, read: dose: 50.0 mg/kg/injection, schedule: Q04DX003 (ip), vehicle: saline with Tween-80.
Where [6] appears, read: dose: 100.0 mg/kg/injection, schedule: Q01DX009 (ip), vehicle: saline with Tween-80.
Where [7] appears, read: dose: 200.0 mg/kg/injection, schedule: Q01DX009 (ip), vehicle: saline with Tween-80.

As to `CCN1CC1`, the T/C is 113 % of control (dose: 3.12 mg/kg/injection, schedule: Q01DX001 (ip), vehicle: Klucel (hydroxypropylcellulose) (HPC)); 118 % of control (dose: 6.25 mg/kg/injection, schedule: Q01DX001 (ip), vehicle: Klucel (hydroxypropylcellulose) (HPC)); 90 % of control (dose: 6.25 mg/kg/injection, schedule: Q01DX009 (ip), vehicle: Klucel (hydroxypropylcellulose) (HPC)); 86 % of control (dose: 12.5 mg/kg/injection, schedule: Q01DX001 (ip), vehicle: Klucel (hydroxypropylcellulose) (HPC)); 86 % of control (dose: 12.5 mg/kg/injection, schedule: Q01DX009 (ip), vehicle: Klucel (hydroxypropylcellulose) (HPC)).

With `CCN(CC)CCCNc1ncnc2onc(C)c12`, the T/C reads like this: under setting [1], 101 % of control; under setting [2], 97 % of control; under setting [3], 106 % of control.

In the case of `O=S1(=O)CCN(CCc2ccccc2)CC1`, the T/C runs as follows: (dose: 50.0 mg/kg/injection, schedule: Q01DX009 (ip), vehicle: Klucel (hydroxypropylcellulose) (HPC)) 94 % of control; (dose: 100.0 mg/kg/injection, schedule: Q01DX009 (ip), vehicle: Klucel (hydroxypropylcellulose) (HPC)) 90 % of control; (dose: 200.0 mg/kg/injection, schedule: Q01DX009 (ip), vehicle: Klucel (hydroxypropylcellulose) (HPC)) 96 % of control.

For the compound `CCC1=C(C[C@H]2NCCc3cc(OC)c(OC)cc32)C[C@H]2c3cc(OC)c(OC)cc3CCN2C1`, the T/C is, setting by setting: (dose: 4.0 mg/kg/injection, schedule: Q04DX003 (ip), vehicle: saline) 110 % of control; (dose: 6.7 mg/kg/injection, schedule: Q04DX003 (ip), vehicle: saline with Tween-80) 113 % of control; (dose: 15.0 mg/kg/injection, schedule: Q04DX003 (ip), vehicle: saline with Tween-80) 159 % of control; (dose: 16.0 mg/kg/injection, schedule: Q04DX003 (ip), vehicle: saline) 158 % of control; (dose: 22.0 mg/kg/injection, schedule: Q04DX003 (ip), vehicle: Klucel (hydroxypropylcellulose) (HPC)) 165 % of control; (dose: 32.0 mg/kg/injection, schedule: Q04DX003 (ip), vehicle: saline) 174 % of control. Further, the T/C was 165 % of control (dose: 33.0 mg/kg/injection, schedule: Q04DX003 (ip), vehicle: Klucel (hydroxypropylcellulose) (HPC)); 177 % of control under setting [4]; 154 % of control (dose: 33.0 mg/kg/injection, schedule: Q04DX003 (ip), vehicle: saline); 195 % of control under setting [5]; 90 % of control (dose: 75.0 mg/kg/injection, schedule: Q04DX003 (ip), vehicle: saline).

In the case of `COc1ccc(C(=O)C(C)C=O)c(OCc2ccccc2)c1OC` (configuration not stated), the T/C under setting [6] is 95 % of control; the T/C under setting [1] was 104 % of control; the T/C under setting [7] was 113 % of control; the T/C under setting [2] is 113 % of control; the T/C under setting [3] is 90 % of control.

Take `O=S1(=O)CC(Cl)C(Cl)C1` (configuration not stated): the T/C (dose: 3.12 mg/kg/injection, schedule: Q01DX009 (ip), vehicle: saline) was 90 % of control and 95 % of control; the T/C (dose: 4.5 mg/kg/injection, schedule: Q04DX003 (ip), vehicle: saline) was 118 % of control; the T/C (dose: 6.25 mg/kg/injection, schedule: Q01DX009 (ip), vehicle: saline) was 90 % of control; the T/C (dose: 9.0 mg/kg/injection, schedule: Q04DX003 (ip), vehicle: saline) is 104 % of control; the T/C (dose: 12.5 mg/kg/injection, schedule: Q01DX009 (ip), vehicle: saline) is 95 % of control; the T/C (dose: 18.0 mg/kg/injection, schedule: Q04DX003 (ip), vehicle: saline) was 113 % of control. Moreover, under “dose: 26.0 mg/kg/injection, schedule: Q04DX003 (ip), vehicle: saline”, the T/C was 91 % of control.

Consider `O=C(O)C(O)C(=O)O`, for which the T/C (dose: 100.0 mg/kg/injection, schedule: Q04DX003 (ip), vehicle: saline) is 95 % of control.

`CNC(=N)c1ccc(NC(=N)c2ccc(NC(=N)c3ccc(NC(=O)Nc4ccc(C#N)cc4)cc3)cc2)cc1`: the T/C is, setting by setting: (dose: 3.0 mg/kg/injection, schedule: Q04DX003 (ip), vehicle: saline with Tween-80) 123 % of control; (dose: 14.0 mg/kg/injection, schedule: Q04DX003 (ip), vehicle: saline with Tween-80) 163 % of control; (dose: 16.0 mg/kg/injection, schedule: Q01DX009 (ip), vehicle: saline with Tween-80) 157 % of control; (dose: 24.0 mg/kg/injection, schedule: Q01DX009 (ip), vehicle: saline with Tween-80) 173 % of control and 200 % of control; under setting [4], 250 % of control and 168 % of control and 200 % of control; (dose: 37.0 mg/kg/injection, schedule: Q01DX009 (ip), vehicle: saline with Tween-80) 230 % of control. Besides, the T/C is 153 % of control (dose: 37.5 mg/kg/injection, schedule: Q01DX009 (ip), vehicle: saline with Tween-80); 103 % of control (dose: 50.0 mg/kg/injection, schedule: Q01DX009 (ip), vehicle: saline with Tween-80); 250 % of control and 186 % of control under setting [5]; 250 % of control and 172 % of control (dose: 75.0 mg/kg/injection, schedule: Q04DX003 (ip), vehicle: saline with Tween-80); 216 % of control (dose: 112.0 mg/kg/injection, schedule: Q04DX003 (ip), vehicle: saline with Tween-80).

With `O=C1OC(c2ccc(O)cc2)(c2ccc(Oc3ccccc3)cc2)c2ccccc21` (configuration not stated), the T/C under setting [6] was 97 % of control; the T/C under setting [7] is 105 % of control; the T/C (dose: 400.0 mg/kg/injection, schedule: Q01DX009 (ip), vehicle: saline with Tween-80) is 99 % of control.

As for `CC(C)(C)OC(=O)NC(CCCNC(=O)OCc1ccccc1)C(=O)NC(CCCNC(=O)OCc1ccccc1)C(=O)OCc1ccccc1` (configuration not stated), the T/C by setting is: (dose: 50.0 mg/kg/injection, schedule: Q01DX005 (ip), vehicle: saline with Tween-80) 91 % of control; (dose: 100.0 mg/kg/injection, schedule: Q01DX005 (ip), vehicle: saline with Tween-80) 92 % of control; (dose: 200.0 mg/kg/injection, schedule: Q01DX005 (ip), vehicle: saline with Tween-80) 95 % of control.

In the case of `CC(C)N=Cc1ccccc1O.CC(C)N=Cc1ccccc1O.[Ni]`, the T/C reads like this: (dose: 6.25 mg/kg/injection, schedule: Q04DX003 (ip), vehicle: saline sonified) 105 % of control; (dose: 12.5 mg/kg/injection, schedule: Q04DX003 (ip), vehicle: saline sonified) 105 % of control; (dose: 25.0 mg/kg/injection, schedule: Q04DX003 (ip), vehicle: saline sonified) 115 % of control.

Turning to `Cc1n(C(C)C)c2c([n+]1C)C(=O)c1ccccc1C2=O`, the T/C runs as follows: (dose: 1.25 mg/kg/injection, schedule: Q01DX009 (ip), vehicle: alcohol) 118 % of control; (dose: 2.5 mg/kg/injection, schedule: Q01DX009 (ip), vehicle: alcohol) 122 % of control.
